pEC50, pIC50: −log10 of the molar value. Like-named read-outs stand apart in the source and are kept apart here.
What was measured:
[1] = system: PDE activity in cell extracts of malaria parasites; design: method as in PMID 16038615, PMID 25951195; conditions: read-out: IC50 against PDE activity in cell extracts; cited from earlier work
[2] = system: P. falciparum (clone 3D7); test: Parasite reduction ratio (PRR) assay; assay type: cell-based, Plasmodium falciparum; conditions: for Slope: 10× EC50, 3D7 killing profile
Method: The in vitro killing profile of compounds was determined by monitoring the ability of parasites to recover following treatment with a compound of interest using a previously reported approach ([50]), which allowed calculation of the PRR ([51]). […] To quantify the number of viable parasites following treatment, four independent sets of threefold serial dilutions were performed on each sample, which were assayed for the presence or absence of parasites after 28 days using the LDH assay, and the number of viable parasites was determined by the number of wells showing growth. PRR and PCT99.9% were calculated as previously reported ([50]).

[3] = system: P. falciparum clinical isolates from Porto Velho, Brazil; test: Ex vivo schizont maturation assay, Brazilian clinical isolates; assay type: cell-based, Plasmodium falciparum; conditions: Plasmodium falciparum
Method: Only monoinfected patients with P. falciparum with parasitemia between 2000 and 80,000 parasites/μl and with at least 70% of ring-stage parasites were recruited. Patients who had used an antimalarial in the previous month and/or presented with symptoms of severe malaria were excluded from the study. The study cohort comprised 24 patients living in this highly endemic area. A peripheral venous blood sample (5 ml) was collected from each individual by venipuncture in heparin-containing tubes and immediately used in the ex vivo drug susceptibility assay using preprepared plates containing diluted antimalarial compounds. […] Last, 20 μl of each dilution was transferred into the ex vivo assay plate and diluted 10-fold into the final assay medium containing parasites. For the infected blood preparation, 5 ml of whole blood was centrifuged at 800g for 10 min, and the plasma and buffy coat were removed. […] Control assays on a 3D7 laboratory isolate were performed with medium supplemented with human serum (20%). The iRBC (180 μl per well) were distributed in the predosed drug plate. […] Control wells containing drug-free iRBCs were cultured with complete medium. The parasite-drug incubation was terminated when 40% of the ring stages reached the schizont stage (at least three distinct nuclei per parasite) in the drug-free control wells. Thick blood films were then made from each well, dried, stained with 5% Giemsa solution for 30 min, and examined microscopically. The number of schizonts per 200 asexual-stage parasites was determined for each drug concentration and then normalized by comparing with the schizont number in the drug-free control wells [considered as 100% ([64])]. The half-maximal drug inhibitory response (EC50) was estimated by curve fitting using software from the OriginLab Corporation, Northampton, MA, USA and comparing with parasite growth in the drug-free controls.

[4] = system: P. falciparum clinical isolates from Tororo and Busia Districts of Uganda; test: Ex vivo 72-hour SYBR Green assay, Ugandan clinical isolates; assay type: cell-based, Plasmodium falciparum; conditions: Plasmodium falciparum
Source text: Clinical isolates were from the Tororo District of Uganda, located in the central-eastern part of the county near the Kenya border. Tororo and surrounding areas have high-intensity, year-round malaria transmission. […] Patients reporting use of antimalarial treatment within the previous 30 days or with evidence of an infection with other Plasmodium species were excluded. Informed consent was obtained from patients and/or primary care givers (depending on age); children aged 8 to 17 years provided assent. Two to 5 ml of blood was collected by venipuncture in a heparin tube. Samples were delivered to the adjacent IDRC laboratory at Tororo District Hospital or transported by car from Masafu Hospital on the day of collections for storage of blood spots on filter paper (for isolation of nucleic acids) and initiation of ex vivo culture of malaria parasites. Treatment involved a standard therapeutic regimen for uncomplicated falciparum malaria, which was a 3-day course of the artemisinin-based combination therapy (ACT), artemether-lumefantrine. In Uganda, at the time of sampling, there was widespread resistance to the antifolate drugs due to mutant pfdhfr/pfdhps alleles. […] Chloroquine was prepared at 10 mM in water. Stock solutions were stored at −20°C. Working solutions were freshly prepared from a single aliquot within 4 hours of the susceptibility test and stored at 4°C.
(§1) Samples were delivered to the adjacent IDRC laboratory at Tororo District Hospital or transported by car from Masafu Hospital on the day of collection for storage of blood spots on filter paper (for isolation of nucleic acids) and initiation of ex vivo culture of malaria parasites. […] Before assay, 10 mM antimalarial stock compounds were diluted as necessary in DMSO and stored at −20°C. […] Compounds were serially diluted threefold in a 96-well assay plate in complete medium to a final volume of 50 μl, in columns 1 to 10, with concentrations optimized to capture full dose-response curves. Column 11 contained compound-free controls, while column 12 contained uninfected human RBC controls. Parasite culture (150 μl) was added to columns 1 to 11 of the assay plate with a final volume of 200 μl per well, 0.2% parasitemia, and 2% hematocrit. […] Thawed plates were incubated with SYBR Green lysis buffer for 1 hour in the dark as previously reported ([62]). Fluorescence was quantified using a BMG Fluostar Optima plate reader at an excitation of 485 nm and an emission of 530 nm, and data were plotted using GraphPad Prism 7. The data were curve fit with a variable slope function to estimate IC50 values. For each isolate, a Z′ factor to assess assay quality was calculated from positive controls (eight drug-free wells) and negative controls (eight parasite-free, red cell control wells). Z′ values over 0.5 were considered good assays, but each curve was also examined by eye for suitability. Some assays with Z′ below 0.5 may be considered valid depending on factors such as the SE of the curve-fit IC50.

P. falciparum 3D7 = test: Ex vivo 72-hour SYBR Green assay, 3D7 control (Uganda); assay type: cell-based, Plasmodium falciparum; conditions: Plasmodium falciparum, 3D7, read-out: EC50 lab strain 3D7
Method: as §1

P. falciparum Dd2 = test: Ex vivo 72-hour SYBR Green assay, Dd2 control (Uganda); assay type: cell-based, Plasmodium falciparum; conditions: Plasmodium falciparum, DD2, read-out: EC50 lab strain Dd2
Method: as §1

HepG2 cells = test: HepG2 cytotoxicity; assay type: cell-based
Source text: Table 1. Key activity data for the three main chemical subseries against ABS parasites, parasite fractions, and HepG2 cells. ND, not determined; ×/÷ is the geometric mean with geometric SD. | column: HepG2 EC50 (nM) (selectivity index)

P. falciparum Dd2-B2 = test: 72-hour flow cytometry EC50 assay, Dd2-B2 parental line; assay type: cell-based, Plasmodium falciparum; conditions: Plasmodium falciparum, DD2, read-out: EC50 Dd2-B2 parental line
Method: (§2) Stocks of SAL-0010003 (5-benzyl), SAL-0010355 (5-aryl), and SAL-0010419 (2-alkyl) were made at 10 and 1 mM in DMSO. Aliquots in use were stored at −20°C, and long-term storage was at −80°C. All in vitro studies were done such that the final DMSO concentration was <0.5%. P. falciparum ABS parasites were cultured at 3% hematocrit in human O+ RBCs in RPMI 1640 medium, supplemented with 25 mM Hepes, 50 mg L-hypoxanthine, 2 mM L-glutamine, 0.225% sodium bicarbonate, 0.5% (w/v) AlbuMAX II (Invitrogen) and gentamycin (10 μg/ml), in modular incubator chambers (Billups-Rothenberg) at 5% O2, 5% CO2, and 90% N2 at 37°C. Dd2-B2 (obtained from T. Wellems, National Institute of Allergy and Infectious Diseases, National Institutes of Health) is a genetically homogenous line that was cloned from Dd2 by limiting dilution. To define the EC50 and EC90 values of ABS parasites, Dd2-B2 ring-stage cultures at 0.2% parasitemia and 1% hematocrit were exposed for 72 hours to a range of 10 drug concentrations that were twofold serially diluted in duplicates along with drug-free controls. Parasite survival was assessed by flow cytometry on an iQue flow cytometer (Sartorius) using SYBR Green and MitoTracker Deep Red FM (Life Technologies) as nuclear stain and vital dyes, respectively. After determination of the EC50 and EC90 values for the three compounds with the P. falciparum Dd2-B2 clone, one single-step selection was set up using 2 × 10^5 parasites in each well of a 96-well plate at a starting concentration of 3× EC90. Parasites were cleared from the culture rapidly, and cultures were screened three times weekly by flow cytometry and counted as positive for recrudescence when the overall parasitemia reached 0.3% and the parasites were visible on a blood smear. DNA was extracted from recrudescent lines using a QIAGEN QIAamp Blood Mini Kit, and libraries were prepared with the Illumina DNA Prep kit for whole-genome sequencing on the Illumina MiSeq using a V3 2 × 300–base pair flow cell.

[5] = system: P. falciparum Dd2-B2 lines selected under drug pressure; test: 72-hour flow cytometry EC50 assay, lines selected under drug pressure; assay type: cell-based, Plasmodium falciparum; conditions: for pEC50: Plasmodium falciparum
Method: Three examples of an additional compound series developed independently [NPD-2958, NPD-3518 ([31]), and NPD-3738; fig.
as §2

[6] = read-out: EC50 clinical isolates, Gmean (geometric mean)
[7] = read-out: EC50 clinical isolates, Median
[8] = read-out: EC50 clinical isolates, Range

Compound: Cn1c(=O)c2[nH]cnc2n(C)c1=O [theophylline]
- pIC50 [1]: < 4.00

Compound: CC(C)Cn1c(=O)n(C)c(=O)c2[nH]cnc21 [3-isobutyl-1-methylxanthine]
- pIC50 [1]: < 4.00

Compound: Cn1c(=O)c2c(ncn2C)n(C)c1=O [caffeine]
- pIC50 [1]: < 4.00

Compound: COc1ccc(C2CNC(=O)C2)cc1OC1CCCC1 (stereo not shown) [rolipram]
- pIC50 [1]: < 4.00

Compound: CCN(CC)CCCC(C)Nc1ccnc2cc(Cl)ccc12 (stereo not shown) [Chloroquine, reference compound]
- Lag phase ([2]; 10× EC50, 3D7): 0 h
- PCT99.9% (hours taken to kill 99.9% of the parasites) ([2]; 10× EC50, 3D7): 39.0 h
- Slope [2]: −0.0717 ± 0.0037
- pEC50 ([3]; read-out: EC50 range, clinical isolates): 5.59 to 6.20
- pEC50 ([3]; read-out: Median EC50, clinical isolates): 5.92
- pEC50 [4, 6]: 7.89
- pEC50 [4, 7]: 7.85
- pEC50 [4, 8]: 7.60 to 8.70
- pEC50 (P. falciparum 3D7): 8.03
- pEC50 (P. falciparum Dd2): 6.46

Compound: CCc1nc(N)nc(N)c1-c1ccc(Cl)cc1 [Pyrimethamine, reference compound]
- Lag phase ([2]; 10× EC50, 3D7): 24 h
- Log PRR ([2]; 10× EC50, 3D7): 3.2
- PCT99.9% (hours taken to kill 99.9% of the parasites) ([2]; 10× EC50, 3D7): 63.1 h
- Slope [2]: −0.0667 ± 0.0059
- pEC50 [4, 6]: 4.38
- pEC50 [4, 7]: 4.41
- pEC50 [4, 8]: 3.71 to 4.80
- pEC50 ([4]; read-out: Geometric mean EC50, Ugandan isolates (Fig. 3B)): 4.38
- pEC50 (P. falciparum 3D7): 7.34
- pEC50 (P. falciparum Dd2): 4.66

Compound: CC(C)COc1ccc(C(=O)N2CC(N(C)C)C2)cc1-c1nc2c(C(C)C)n[nH]c2c(=O)[nH]1 [SAL-0010355]
- pEC50 (HepG2 cells; Homo sapiens, HepG2): < 4.60
- HepG2 selectivity index (HepG2 cells; value in brackets after HepG2 EC50): 1,185
- pEC50 (P. falciparum Dd2-B2): 7.16
- pEC50 ([5]; DD2, read-out: EC50, line selected with SAL-0010355, Well B7): 6.37
- pEC50 ([5]; DD2, read-out: EC50, line selected with SAL-0010355, Well D7): 6.33
- pEC50 ([5]; DD2, read-out: EC50, line selected with SAL-0010355, Well D9): 6.43
- Mean fold change in EC50 ([5]; selected lines vs Dd2-B2 parental line, ±SD): 6.1 ± 0.7 fold
- EC50 shift, line selected with SAL-0010355, Well B7 ([5]; vs Dd2-B2): 6.2 fold
- EC50 shift, line selected with SAL-0010355, Well D7 ([5]; vs Dd2-B2): 6.8 fold
- EC50 shift, line selected with SAL-0010355, Well D9 ([5]; vs Dd2-B2): 5.4 fold

Reference: paper PMC11623267, “Inhibitors of malaria parasite cyclic nucleotide phosphodiesterases block asexual blood-stage development and mosquito transmission” (Science Advances, 2024)
